Reference: patent US20080269267A1, “KINASE INHIBITORS USEFUL FOR THE TREATMENT OF MYLEOPROLIFIC DISEASES AND OTHER PROLIFERATIVE DISEASES” (Deciphera Pharmaceuticals, LLC, priority 2007, published 2008)
Substitutions are numbered along the chain they refer to. Where a name gives a salt, the structure may show the parent alone.

What was measured:
Abl kinase (SEQ ID NO:1) = target: T1, Abl kinase (SEQ ID NO:1) (Homo sapiens, UniProt P00519); experiment: Abl kinase assay (pyruvate kinase/lactate dehydrogenase coupled, ADP production); settings: 2 h preincubation at 30° C., ATP 500 μM; read-out: Abl Enzyme Assay, biochemical IC50
T1 construct: purchased deCode Genetics
T1 sequence (P00519 with tags, fused parts or gaps): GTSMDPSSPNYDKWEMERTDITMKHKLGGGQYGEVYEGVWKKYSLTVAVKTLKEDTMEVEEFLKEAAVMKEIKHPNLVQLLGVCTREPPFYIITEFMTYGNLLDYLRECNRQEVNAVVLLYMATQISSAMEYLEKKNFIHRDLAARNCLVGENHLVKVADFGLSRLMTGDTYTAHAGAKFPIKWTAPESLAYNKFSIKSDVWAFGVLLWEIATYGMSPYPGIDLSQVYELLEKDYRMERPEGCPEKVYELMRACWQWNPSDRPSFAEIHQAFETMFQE
Protocol: Abl Kinase (SEQ ID NO:1) Assay
Activity of Abl kinase (SEQ ID NO:1) was determined by following the production of ADP from the kinase reaction through coupling with the pyruvate kinase/lactate dehydrogenase system (e.g., Schindler, et al. Science (2000) 289, 1938-1942). In this assay, the oxidation of NADH (thus the decrease at A340nm) was continuously monitored spectrophometrically. The reaction mixture (100 μl) contained Abl kinase (1 nM. Abl from deCode Genetics), peptide substrate (EAIYAAPFAKKK. 0.2 mM), MgCl2 (10 mM), pyruvate kinase (4 units), lactate dehydrogenase (0.7 units), phosphoenol pyruvate (1 mM), and NADH (0.28 mM) in 90 mM Tris buffer containing 0.2% octyl-glucoside and 3.5% DMSO, pH 7.5. Test compounds were incubated with Abl (SEQ ID NO:1) and other reaction reagents at 30° C. for 2 h before ATP (500 μM) was added to start the reaction. The absorption at 340 nm was monitored continuously for 2 hours at 30° C. on Polarstar Optima plate reader (BMG). The reaction rate was calculated using the 1.0 to 2.0 h time frame. Percent inhibition was obtained by comparison of reaction rate with that of a control (i.e. with no test compound). IC50 values were calculated from a series of percent inhibition values determined at a range of inhibitor concentrations using software routines as implemented in the GraphPad Prism software package.

[1] = target: T2, T315I Abl kinase (SEQ ID NO:2) (Homo sapiens, UniProt P00519, T315I); experiment: T315I Abl kinase assay (pyruvate kinase/lactate dehydrogenase coupled); settings: 1 h preincubation at 30° C., ATP 500 μM; read-out: Abl T315l Enzyme Assay, biochemical IC50
T2 construct: purchased deCode Genetics
T2 sequence (P00519 with tags, fused parts or gaps T315I): T1 sequence (P00519 with tags, fused parts or gaps) with T94I
Protocol: Abl Kinase (SEQ ID NO:2) Assay
Activity of T315I Abl kinase (SEQ ID NO:2) was determined by following the production of ADP from the kinase reaction through coupling with the pyruvate kinase/lactate dehydrogenase system (e.g., Schindler, et al. Science (2000) 289, 1938-1942). In this assay, the oxidation of NADH (thus the decrease at A340nm) was continuously monitored spectrophometrically. The reaction mixture (100 μl) contained Abl kinase (4.4 nM. […] Abl from deCode Genetics), peptide substrate (EAIYAAPFAKKK, 0.2 mM), MgCl2 (10 mM), pyruvate kinase (4 units), lactate dehydrogenase (0.7 units), phosphoenol pyruvate (1 mM), and NADH (0.28 mM) in 90 mM Tris buffer containing 0.2% octyl-glucoside and 1% DMSO, pH 7.5. Test compounds were incubated with T315I Abl (SEQ ID NO:2) and other reaction reagents at 30° C. for 1 h before ATP (500 μM) was added to start the reaction. The absorption at 340 nm was monitored continuously for 2 hours at 30° C. on Polarstar Optima plate reader (BMG). The reaction rate was calculated using the 1.0 to 2.0 h time frame. Percent inhibition was obtained by comparison of reaction rate with that of a control (i.e. with no test compound). IC50 values were calculated from a series of percent inhibition values determined at a range of inhibitor concentrations using software routines as implemented in the GraphPad Prism software package.

[2] = target: T3, BaF3 cells transfected with T315I p210 BCR-Abl (Homo sapiens, UniProt P00519, T315I, cells depend on it); experiment: Ba/F3 p210 T315I whole cell proliferation assay (Cell Titer Blue, 72 hours); type: cell-based; settings: 72 hours incubation; read-out: Ba/F3 p210 T315I whole cell proliferation assay, antiproliferation IC50
T3 construct: fused on or other part: P11274 (Breakpoint cluster region protein)
Protocol: BaF3 cells (parental or transfected with the following: wild type p210 BCR-Abl and T315I p210 BCR-Abl was obtained from Professor Richard Van Etten (New England Medical Center, Boston, Mass.). Briefly, cells were grown in RPMI 1640 supplemented with 10% characterized fetal bovine serum (HyClone, Logan, Utah) at 37 degrees Celsius, 5% CO2, 95% humidity. Cells were allowed to expand until reaching 80% saturation at which point they were subcultured or harvested for assay use.
A serial dilution of test compound was dispensed into a 96 well black clear bottom plate (Corning, Corning, N.Y.). For each cell line, three thousand cells were added per well in complete growth medium. Plates were incubated for 72 hours at 37 degrees Celsius, 5% CO2, 95% humidity. At the end of the incubation period Cell Titer Blue (Promega, Madison, Wis.) was added to each well and an additional 4.5 hour incubation at 37 degrees Celsius, 5% CO2, 95% humidity was performed. Plates were then read on a BMG Fluostar Optima (BMG, Durham, N.C.) using an excitation of 544 nm and an emission of 612 nm. Data was analyzed using Prism software (Graphpad, San Diego, Calif.) to calculate IC50's.

IC50 (Abl kinase (SEQ ID NO:1)) [nM] | IC50 [1] [nM] | GI50 [2] [nM] | Compound
< 100 | < 100000 | < 100 | 1-(2-tert-butyl-4-(pyridin-3-yl)pyrimidin-5-yl)-3-(2-fluoro-5-(8-methyl-2-(methylamino)-7-oxo-7,8-dihydropyrido[2,3-d]pyrimidin-6-yl)phenyl)urea [Example 10]
< 100 | < 100 | < 100 | CC(C)c1cc(NC(=O)Nc2ccc(Oc3ccnc(-c4cnn(C)c4)c3)cc2F)n(-c2cccc(C#N)c2)n1 [Example 2, 1-(1-(3-cyanophenyl)-3-isopropyl-1H-pyrazol-5-yl)-3-(2-fluoro-4-(2-(1-methyl-1H-pyrazol-4-yl)pyridin-4-yloxy)phenyl)urea]
< 100 | < 100 | < 100 | CC(C)(C)c1cc(NC(=O)Nc2ccc(Oc3ccnc(-c4cn[nH]c4)c3)cc2F)n(-c2cccc(C#N)c2)n1 [Example 3, 1-(4-(2-(1H-pyrazol-4-yl)pyridin-4-yloxy)-2-fluorophenyl)-3-(3-tert-butyl-1-(3-cyanophenyl-1H-pyrazol-5-yl)urea hydrochloride]
< 100 | < 100 | < 100 | Cn1cc(-c2cc(Oc3ccc(NC(=O)Nc4cc(C(C)(C)C)nn4-c4cccc(C#N)c4)c(F)c3)ccn2)cn1 [Example 4, 1-(3-tert-butyl-1-(3-cyanophenyl)-1H-pyrazol-5-yl)-3-(2-fluoro-4-(2-(1-methyl-1H-pyrazol-4-yl)pyridin-4-yloxy)phenyl)urea hydrochloride]
< 100 | < 100 | < 100 | CC(C)c1cc(NC(=O)Nc2ccc(Oc3ccnc(-c4cnn(C)c4)c3)cc2F)n(-c2ccc(F)c(C#N)c2)n1 [Example 5, 1-(1-(3-cyano-4-fluorophenyl)-3-isopropyl-1H-pyrazol-5-yl)-3-(2-fluoro-4-(2-(1-methyl-1H-pyrazol-4-yl)pyridin-4-yloxy)phenyl)urea]
< 100 | < 100 | < 100 | Cn1cc(-c2cc(Oc3ccc(NC(=O)Nc4cc(C(C)(C)C)nn4-c4ccc(C#N)cc4)c(F)c3)ccn2)cn1 [Example 6, 1-(3-tert-butyl-1-(4-cyanophenyl)-1H-pyrazol-5-yl)-3-(2-fluoro-4-(2-(1-methyl-1H-pyrazol-4-yl)pyridin-4-yloxy)phenyl)urea]
< 100 | < 100 | < 100 | Cn1cc(-c2cc(Oc3ccc(NC(=O)Nc4cc(C(C)(C)C)nn4-c4cccc(CO)c4)c(F)c3)ccn2)cn1 [Example 7, 1-(3-tert-butyl-1-(3-(hydroxymethyl)phenyl)-1H-pyrazol-5-yl)-3-(2-fluoro-4-(2-(1-methyl-1H-pyrazol-4-yl)pyridin-4-yloxy)phenyl)urea p-toluenesulfonic acid]
< 100 | < 100 | < 100 | Cn1cc(-c2cc(Oc3ccc(NC(=O)Nc4cc(C(C)(C)C)nn4-c4ccc(CO)cc4)c(F)c3)ccn2)cn1 [Example 8, 1-(3-tert-butyl-1-(4-(hydroxymethyl)phenyl)-1H-pyrazol-5-yl)-3-(2-fluoro-4-(2-(1-methyl-1H-pyrazol-4-yl)pyridin-4-yloxy)phenyl)urea]
< 100 | < 100 | < 100 | CCc1cc(NC(=O)Nc2ccc(Oc3ccnc(-c4cnn(C)c4)c3)cc2F)n(-c2cccc(C#N)c2)n1 [Example 9, 1-(1-(3-cyanophenyl)-3-ethyl-1H-pyrazol-5-yl)-3-(2-fluoro-4-(2-(1-methyl-1H-pyrazol-4-yl)pyridin-4-yloxy)phenyl)urea]
< 100 | < 100 | < 100 | Cc1ccc(-n2nc(C(C)C)cc2NC(=O)Nc2ccc(Oc3ccnc(-c4cnn(C)c4)c3)cc2F)cc1C#N [Example 11, 1-(1-(3-cyano-4-methylphenyl)-3-isopropyl-1H-pyrazol-5-yl)-3-(2-fluoro-4-(2-(1-methyl-1H-pyrazol-4-yl)pyridin-4-yloxy)phenyl)urea]
< 100 | < 100 | < 100 | Cc1c(Oc2ccnc(-c3cnn(C)c3)c2)ccc(NC(=O)Nc2cc(C(C)C)nn2-c2cccc(C#N)c2)c1F [Example 12, 1-(1-(3-cyanophenyl)-3-isopropyl-1H-pyrazol-5-yl)-3-(2-fluoro-3-methyl-4-(2-(1-methyl-1H-pyrazol-4-yl)pyridin-4-yloxy)phenyl)urea]
< 100 | < 100 | < 100 | CC(C)c1cc(NC(=O)Nc2ccc(Oc3ccnc(-c4cnn(C)c4)c3)c(F)c2F)n(-c2cccc(C#N)c2)n1 [Example 13, 1-(1-(3-cyanophenyl)-3-isopropyl-1H-pyrazol-5-yl)-3-(2,3-difluoro-4-(2-(1-methyl-1H-pyrazol-4-yl)pyridin-4-yloxy)phenyl)urea]
< 100 | < 100000 | < 100 | Cc1ncc(NC(=O)Nc2ccc(Oc3ccnc(-c4cnn(C)c4)c3)cc2F)c(-c2ccccc2)n1 [Example 14, 1-(2-fluoro-4-(2-(1-methyl-1H-pyrazol-4-yl)pyridin-4-yloxy)phenyl)-3-(2-methyl-4-phenylpyrimidin-5-yl)urea]
< 100 | < 100 | < 100 | CC(C)c1cc(NC(=O)Nc2ccc(Oc3ccnc(-c4cnn(C)c4)c3)c(F)c2)n(-c2cccc(C#N)c2)n1 [Example 16, 1-(1-(3-cyanophenyl)-3-isopropyl-1H-pyrazol-5-yl)-3-(3-fluoro-4-(2-(1-methyl-1H-pyrazol-4-yl)pyridin-4-yloxy)phenyl)urea]
< 100 | < 100 | < 100 | CCc1cc(NC(=O)Nc2ccc(Oc3ccnc(-c4cnn(C(C)C)c4)c3)cc2F)n(-c2cccc(C#N)c2)n1 [Example 17, 1-(1-(3-cyanophenyl)-3-ethyl-1H-pyrazol-5-yl)-3-(2-fluoro-4-(2-(1-isopropyl-1H-pyrazol-4-yl)pyridin-4-yloxy)phenyl)urea]
